# Test results taken from patent US5089623A, “Certain imidate insecticides” (Imperial Chemical Industries Plc, priority 1990, dated 1992).
# Experiments:
# Type in all cases: in vivo
# [1] = system: Cabbage Looper [Trichoplusia ni (Hubner)]; assay: Cabbage looper test (CL); conditions: second-instar larvae, 3-5 days, percent in solution
# [2] = system: Housefly [Musca domestica]; assay: Housefly insecticidal test (HF); conditions: per 25 female houseflies, 48 hours
# Method: Test compounds were diluted in acetone and aliquots pipetted onto the bottom of aluminum dishes. To ensure even spreading of the chemical on the bottom of the dishes, 1 ml of acetone containing 0.01% peanut oil was also added to each dish. After all solvents had evaporated, the dishes were placed in circular cardboard cages containing 25 female houseflies, 1-2 days old. The cages were covered on the bottom with cellophane and on the top with tulle netting, and each contained a sugar-water saturated cotton plug for maintenance of the flies. Mortality was recorded after 48 hours. Test levels ranged from 100μg/25 female houseflies downward.
# [3] = system: Tobacco Budworm [Heliothis virescens (Fabricius)] eggs; assay: Tobacco budworm egg test (TBW-E); conditions: percent in solution
# From the text: Eggs: Paper towel patches of 2-day old eggs of the tobacco budworm were dipped in acetone solutions of the test compound and placed in petri dishes containing a portion of larval rearing medium. […] Test concentrations ranged from 0.1% downward.
Compound,LC50 CL [1],LC50 HF [2],LC50 TBW E [3]
CC(C)(C)C(=Nc1cccc(Cl)c1)OCc1cccc(Oc2ccccc2)c1 [Compound 12],0.008%,> 100 µg,> 0.1%
CC1CC1C(=Nc1ccc(Cl)cc1)OCc1cccc(Oc2ccccc2)c1 (centres unmarked) [Compound 15],0.025%,> 100 µg,> 0.01%
CC(C)C(=Nc1cc(Cl)c(Cl)cc1Cl)OCc1cccc(Oc2ccccc2)c1 [Compound 18],0.008%,> 100 µg,0.09%
CC(C)C(=Nc1c(Cl)cc(Cl)cc1Cl)OCc1cccc(Oc2ccccc2)c1 [Compound 19],< 0.1%,> 100 µg,> 0.1%
COC(C)C(=Nc1ccc(Cl)cc1)OCc1cccc(Oc2ccccc2)c1 (centres unmarked) [Compound 22],0.004%,15 µg,0.08%
Clc1cccc(N=C(OCc2cccc(Oc3ccccc3)c2)C2CC2)c1 [Compound 24],0.005%,25 µg,0.1%
CCC(C)C(=Nc1ccc(Cl)cc1)OCc1cccc(Oc2ccccc2)c1 (centres unmarked) [Compound 26],0.007%,> 100 µg,> 0.1%
CC(Cl)C(=Nc1ccc(Cl)c(Cl)c1)OCc1cccc(Oc2ccccc2)c1 (centres unmarked) [Compound 27],0.04%,> 100 µg,> 0.1%
CCC(=Nc1cccc(Cl)c1Cl)OCc1cccc(Oc2ccccc2)c1 [Compound 28],0.009%,> 100 µg,> 0.1%
CCC(=Nc1ccc(Cl)c(Cl)c1)OCc1cccc(Oc2ccccc2)c1 [Compound 36],0.024%,20 µg,> 0.01%
CCCC(=Nc1ccc(Cl)c(Cl)c1)OCc1cccc(Oc2ccccc2)c1 [Compound 38],0.006%,33 µg,0.05%
CCC(C)C(=Nc1ccc(Cl)c(Cl)c1)OCc1cccc(Oc2ccccc2)c1 (centres unmarked) [Compound 39],0.0023%,> 100 µg,> 0.1%
CC(C)C(=Nc1ccc(Cl)c(Cl)c1)OCc1cccc(Oc2cccc(F)c2)c1 [Compound 40],0.0025%,36 µg,0.08%
CC(C)(C)C(=Nc1ccc(F)cc1)OCc1cccc(Oc2ccccc2)c1 [Compound 48],0.03%,> 100 µg,> 0.05%
CC(C)C(=Nc1cc(F)ccc1F)OCc1cccc(Oc2ccccc2)c1 [Compound 56],0.01%,91 µg,> 0.05%
CC(C)C(=Nc1cc(F)c(F)cc1F)OCc1cccc(Oc2ccccc2)c1 [Compound 58],0.002%,16 µg,0.06%
CCC(=Nc1ccc(F)cc1F)OCc1cccc(Oc2ccccc2)c1 [Compound 59],0.02%,25 µg,> 0.1%
COc1cc(N=C(OCc2cccc(Oc3ccccc3)c2)C(C)C)cc(C(F)(F)F)c1 [Compound 76],0.002%,20 µg,0.05%
CC(C)C(=Nc1cc(C(F)(F)F)cc(C(F)(F)F)c1)OCc1cccc(Oc2ccccc2)c1 [Compound 78],0.0025%,> 100 µg,> 0.1%
CC(C)C(=Nc1ccc(Br)cc1F)OCc1cccc(Oc2ccccc2)c1 [Compound 79],0.003%,6 µg,0.05%
CC(C)C(=Nc1cc(C(F)(F)F)ccc1F)OCc1cccc(Oc2ccccc2)c1 [Compound 84],0.006%,93 µg,0.1%
FC(F)(F)c1cccc(N=C(OCc2cccc(Oc3ccccc3)c2)C2CC2)c1 [Compound 86],0.013%,65 µg,> 0.01%
Cc1cc(N=C(OCc2cccc(Oc3ccccc3)c2)C(C)C)ccc1F [Compound 87],0.004%,5 µg,0.03%

Compound,LC50 CL [1],LC50 HF [2],LC50 TBW E [3]
Cc1ccc(Cl)c(N=C(OCc2cccc(Oc3ccccc3)c2)C(C)C)c1 [Compound 93],0.005%,64 µg,> 0.1%
Cc1ccc(N=C(OCc2cccc(Oc3ccccc3)c2)C(C)C)c(Cl)c1 [Compound 94],0.0045%,44 µg,0.075%
COc1cc(N=C(OCc2cccc(Oc3ccccc3)c2)C(C)C)c(OC)cc1Cl [Compound 99],0.016%,> 100 µg,> 0.1%
CCSc1ccc(N=C(OCc2cccc(Oc3ccccc3)c2)C(C)C)cc1Cl [Compound 103],0.015%,> 100 µg,> 0.1%
CCOC(=O)c1ccc(N=C(OCc2cccc(Oc3ccccc3)c2)C(C)C)cc1Cl [Compound 104],0.004%,> 100 µg,> 0.1%
CC(C)(C)C(=Nc1ccc(Cl)c([N+](=O)[O-])c1)OCc1cccc(Oc2ccccc2)c1 [Compound 105],0.018%,> 100 µg,> 0.1%
CC(C)(C)C(=Nc1ccc(Br)c(Cl)c1)OCc1cccc(Oc2ccccc2)c1 [Compound 106],0.014%,> 100 µg,> 0.1%
Cc1ccc(N=C(OCc2cccc(Oc3ccccc3)c2)C(C)(C)C)cc1Cl [Compound 107],0.007%,> 100 µg,> 0.1%
Cc1cc(Cl)ccc1N=C(OCc1cccc(Oc2ccccc2)c1)C(C)(C)C [Compound 109],0.002%,> 100 µg,> 0.1%
COc1ccc(N=C(OCc2cccc(Oc3ccc(F)cc3)c2)C(C)C)cc1Cl [Compound 110],0.007%,26 µg,0.04%
CC(C)(Cl)C(=Nc1ccc(Cl)c2ccccc12)OCc1cccc(Oc2ccccc2)c1 [Compound 111],0.1%,> 100 µg,> 0.1%
CC(C)C(=Nc1cccc(Oc2ccccn2)c1)OCc1cccc(Oc2ccccc2)c1 [Compound 114],< 0.1%,92 µg,
CCC(=Nc1ccc(F)c(Cl)c1)OCc1cccc(Oc2ccc(F)cc2)c1 [Compound 115],0.0012%,10 µg,0.075%
CC(Br)C(=Nc1ccc(F)c(Cl)c1)OCc1cccc(Oc2ccccc2)c1 (centres unmarked) [Compound 118],0.0013%,18 µg,> 0.1%
CCCCC(=Nc1ccc(F)c(Cl)c1)OCc1cccc(Oc2ccccc2)c1 [Compound 121],0.1%,> 100 µg,> 0.1%
CCCC(=Nc1ccc(F)c(Cl)c1)OCc1cccc(Oc2ccccc2)c1 [Compound 123],0.012%,> 100 µg,> 0.1%
CC(C)C(=Nc1cccc(C#N)c1)OCc1cccc(Oc2ccccc2)c1 [Compound 126],0.08%,> 100 µg,> 0.1%
Cc1cc(N=C(OCc2cccc(Oc3ccccc3)c2)C(C)C)ccc1Br [Compound 127],0.01%,58 µg,0.04%
CC(C)C(=Nc1c(Br)cc(F)cc1Br)OCc1cccc(Oc2ccccc2)c1 [Compound 130],0.005%,> 100 µg,> 0.1%
Cc1cc(Br)ccc1N=C(OCc1cccc(Oc2ccccc2)c1)C(C)C [Compound 133],0.005%,66 µg,0.1%
FC(F)(F)c1ccc(Oc2ccc(COC(=Nc3ccc(Cl)cc3)C(Cl)Cl)cc2)nc1 [Compound 453],0.1%,> 100 µg,
CC(C)C(=Nc1ccc(F)c(Cl)c1)OC(F)c1cccc(Oc2ccc(F)cc2)c1 (centres unmarked) [Compound 502],,80 µg,
